What was measured:
Format in all cases: in vivo
[1] = tested on: ducksalad (Heteranthera limosa); assay: Test B flooded paddy test; conditions: Flood, 250 g ai/ha; 0 to 100 scale where 0 is no effect and 100 is complete control; 13 to 15 d
Method in brief: (§1)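 Plants at 2-leaf stage flooded to 3 cm above soil, with compounds applied directly to paddy water and that depth maintained. Plants kept in greenhouse 13–15 d. Visual rating versus controls on a 0 (no effect) to 100 (complete control) scale.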

[2] = tested on: barnyardgrass (Echinochloa crus-galli); assay: Test B flooded paddy test; conditions: Flood, 250 g ai/ha; 0 to 100 scale where 0 is no effect and 100 is complete control; 13 to 15 d
Method in brief: as §1

[3] = tested on: sedge, umbrella (small-flower umbrella sedge, Cyperus difformis); assay: Test B flooded paddy test; conditions: Flood, 250 g ai/ha; 0 to 100 scale where 0 is no effect and 100 is complete control; 13 to 15 d
Method in brief: as §1

rice (Oryra sativa) = assay: Test B flooded paddy test; conditions: Flood, 250 g ai/ha; 0 to 100 scale where 0 is no effect and 100 is complete control; 13 to 15 d
Method in brief: as §1

[4] = tested on: barnyardgrass (Echinochloa crus-galli); assay: Test A postemergence; conditions: postemergence
Method in brief: (§2)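 Preemergence directed soil spray on seeded pots, or postemergence application to plants 2–10 cm, one- to two-leaf. Solvent mixture non-phytotoxic, with surfactant. Scored ~10 d later, visually, 0–100 vs untreated.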

[5] = tested on: Galium (catchweed bedstraw, Galium aparine); assay: Test A postemergence; conditions: postemergence
Method in brief: as §2

[6] = tested on: pigweed (Amaranthus retroflexus); assay: Test A postemergence; conditions: postemergence
Method in brief: as §2

corn (Zea mays) = assay: Test A postemergence; conditions: postemergence
Method in brief: as §2

Kochia (Kochia scoparia) [7] = assay: Test A postemergence; conditions: postemergence
Method in brief: as §2

[8] = tested on: giant foxtail (Setaria faberii); assay: Test A postemergence; conditions: postemergence
Method in brief: as §2

[9] = tested on: ryegrass, Italian (Italian ryegrass, Lolium multiflorum); assay: Test A postemergence; conditions: postemergence
Method in brief: as §2

[10] = tested on: ragweed (common ragweed, Ambrosia elatior); assay: Test A postemergence; conditions: postemergence
Method in brief: as §2

[11] = tested on: blackgrass (Alopecurus myosuroides); assay: Test A postemergence; conditions: postemergence
Method in brief: as §2

[12] = tested on: wheat (Triticum aestivum); assay: Test A postemergence; conditions: postemergence
Method in brief: as §2

[13] = tested on: barnyardgrass (Echinochloa crus-galli); assay: Test A preemergence
Method in brief: as §2

[14] = tested on: pigweed (Amaranthus retroflexus); assay: Test A preemergence
Kochia (Kochia scoparia) [15] = assay: Test A preemergence
Method in brief: as §2

[16] = tested on: giant foxtail (Setaria faberii); assay: Test A preemergence
Method in brief: as §2

[17] = tested on: ryegrass, Italian (Italian ryegrass, Lolium multiflorum); assay: Test A preemergence
Method in brief: as §2

[18] = tested on: ragweed (common ragweed, Ambrosia elatior); assay: Test A preemergence
Method in brief: as §2

[19] = 125 g ai/ha, visual injury rating on 0 to 100 scale (0 no effect, 100 complete control), approx. 10 d
[20] = 500 g ai/ha, 0 to 100 scale, 0 no effect, 100 complete control
[21] = 125 g ai/ha, preemergence, 0 to 100 scale (0 no effect, 100 complete control)
[22] = Preemergence, 500 g ai/ha, visual injury approx. 10 d
[23] = 125 g ai/ha, visual rating after approx. 10 d, 0 to 100 scale (0 no effect, 100 complete control)
[24] = 500 g ai/ha, visual injury, 0 to 100 scale (0 no effect, 100 complete control), approx. 10 d
[25] = 125 g ai/ha, Preemergence, visual injury after approximately 10 d, 0 to 100 scale where 0 is no effect and 100 is complete control
[26] = 500 g ai/ha, preemergence, 0 to 100 scale, 0 = no effect, 100 = complete control

## O=C(Nc1cccc(F)c1F)C1C(=S)NCC1c1cccc(C(F)(F)F)c1 (stereo not drawn) [Compound 454]
[1]
  Plant response rating, Ducksalad: 60
[2]
  Plant response rating, Barnyardgrass: 40
[3]
  Plant response rating, Sedge, Umbrella: 0
Rice (Oryra sativa)
  Plant response rating, Rice: 15
[4]; [19]
  Barnyardgrass plant response rating: 60
[4]; [20]
  Plant response rating, Barnyardgrass: 80
[5]; [19]
  Galium plant response rating: 0
[5]; [20]
  Plant response rating, Galium: 30
[6]; [19]
  Pigweed plant response rating: 0
[6]; [20]
  Plant response rating, Pigweed: 0
Corn (Zea mays); [19]
  Corn plant response rating: 50
Corn (Zea mays); [20]
  Plant response rating, Corn: 70
Kochia (Kochia scoparia) [7]; [19]
  Kochia plant response rating: 0
Kochia (Kochia scoparia) [7]; [20]
  Plant response rating, Kochia: 0
[8]; [19]
  Foxtail, Giant plant response rating: 70
[8]; [20]
  Plant response rating, Foxtail, Giant: 80
[9]; [19]
  Ryegrass, Italian plant response rating: 0
[9]; [20]
  Plant response rating, Ryegrass, Italian: 40
[10]; [19]
  Ragweed plant response rating: 0
[10]; [20]
  Plant response rating, Ragweed: 0
[11]; [19]
  Blackgrass plant response rating: 0
[11]; [20]
  Plant response rating, Blackgrass: 50
[12]; [19]
  Wheat plant response rating: 20
[12]; [20]
  Plant response rating, Wheat: 40
[13]; [21]
  Plant response rating, Barnyardgrass: 70
[13]; [22]
  Barnyardgrass plant response rating (0 to 100 scale, 0 is no effect, 100 is complete control): 80
[14]; [21]
  Plant response rating, Pigweed: 0
[14]; [22]
  Pigweed plant response rating (0 to 100 scale, 0 is no effect, 100 is complete control): 0
Kochia (Kochia scoparia) [15]; [21]
  Plant response rating, Kochia: 0
Kochia (Kochia scoparia) [15]; [22]
  Kochia plant response rating (0 to 100 scale, 0 is no effect, 100 is complete control): 0
[16]; [21]
  Plant response rating, Foxtail, Giant: 80
[16]; [22]
  Foxtail, Giant plant response rating (0 to 100 scale, 0 is no effect, 100 is complete control): 90
[17]; [21]
  Plant response rating, Ryegrass, Italian: 0
[17]; [22]
  Ryegrass, Italian plant response rating (0 to 100 scale, 0 is no effect, 100 is complete control): 30
[18]; [21]
  Plant response rating, Ragweed: 0
[18]; [22]
  Ragweed plant response rating (0 to 100 scale, 0 is no effect, 100 is complete control): 0

## O=C1NCC(c2csc(Br)c2)C1C(=O)Nc1ccccc1F (stereo not drawn) [Compound 648]
[1]
  Plant response rating, Ducksalad: 100
[2]
  Plant response rating, Barnyardgrass: 20
[3]
  Plant response rating, Sedge, Umbrella: 0
Rice (Oryra sativa)
  Plant response rating, Rice: 20
[4]; [23]
  Plant response rating, Barnyardgrass: 70
[4]; [24]
  Plant response rating, Barnyardgrass: 80
[5]; [23]
  Plant response rating, Galium: 20
[5]; [24]
  Plant response rating, Galium: 60
[6]; [23]
  Plant response rating, Pigweed: 30
[6]; [24]
  Plant response rating, Pigweed: 50
Corn (Zea mays); [23]
  Plant response rating, Corn: 0
Corn (Zea mays); [24]
  Plant response rating, Corn: 0
Kochia (Kochia scoparia) [7]; [23]
  Plant response rating, Kochia: 0
Kochia (Kochia scoparia) [7]; [24]
  Plant response rating, Kochia: 0
[8]; [23]
  Plant response rating, Foxtail, Giant: 10
[8]; [24]
  Plant response rating, Foxtail, Giant: 50
[9]; [23]
  Plant response rating, Ryegrass, Italian: 30
[9]; [24]
  Plant response rating, Ryegrass, Italian: 50
[10]; [23]
  Plant response rating, Ragweed: 0
[10]; [24]
  Plant response rating, Ragweed: 30
[11]; [23]
  Plant response rating, Blackgrass: 30
[11]; [24]
  Plant response rating, Blackgrass: 50
[12]; [23]
  Plant response rating, Wheat: 0
[12]; [24]
  Plant response rating, Wheat: 0
[13]; [25]
  Plant response rating, Barnyardgrass: 70
[13]; [26]
  Plant response rating, Barnyardgrass: 90
[14]; [25]
  Plant response rating, Pigweed: 0
[14]; [26]
  Plant response rating, Pigweed: 40
Kochia (Kochia scoparia) [15]; [25]
  Plant response rating, Kochia: 0
Kochia (Kochia scoparia) [15]; [26]
  Plant response rating, Kochia: 50
[16]; [25]
  Plant response rating, Foxtail, Giant: 60
[16]; [26]
  Plant response rating, Foxtail, Giant: 80
[17]; [25]
  Plant response rating, Ryegrass, Italian: 30
[17]; [26]
  Plant response rating, Ryegrass, Italian: 40
[18]; [25]
  Plant response rating, Ragweed: 0
[18]; [26]
  Plant response rating, Ragweed: 20
